In patent US5258385A, “β-Carboline-derived compounds, lamchart benzodiazepine-receptor ligands, having an inverse agonist and antagonist effect on benzodiazepines, and drugs containing them” (Centre National de la Recherche Scientifique (CNRS), priority 1991, dated 1993):

Key:
[1] = biological target: central receptors for benzodiazepines; settings: in vitro, rat brain; read-out: IC50 binding to central receptors for benzodiazepines; cited from earlier work
[2] = system: convulsions caused by other agents such as pentylenetetrazole; settings: cited from earlier work
[3] = anxiolytic, anti-convulsant and the like; cited from earlier work
learning and memory = settings: cited from earlier work
benzodiazepine receptor [4] = experiment: Effect on current in xenopus oocyte expressing the benzodiazepine receptor (mRNA); assay type: cell-based
Description: The effect of the lactone on the benzodiazepine receptor expressed was first expressed, using the corresponding messenger RNA, in xenopus oocyte.

benzodiazepine receptor [5] = experiment: In vivo behavior and antagonism of diazepam sedation in mice; settings: sc
Description: The antagonist properties of the lactone were also assessed in vivo in mice.

benzodiazepine receptor [6] = experiment: In vitro binding to benzodiazepine receptor, displacement of 3H-flunitrazepam, rat brain cortical membranes
[7] = system: learning and information retention; settings: man; cited from earlier work

In the case of `CCOC(=O)c1cc2c(cn1)[nH]c1ccccc12` [β-CCE, ethyl ester of β-carboline-3-carboxylic acid], the IC50 [1] is listed as 4 nM, the “in vivo pharmacological effects compared with benzodiazepines” value ([2]; in vivo) is listed as “opposed to those of benzodiazepines” and the proconvulsant effect ([2]; mice) is listed as “proconvulsant in mice which facilitates the convulsions caused by other agents such as pentylenetetrazole”.

In the case of `CCOC(=O)c1ncc2[nH]c3cccc(OCc4ccccc4)c3c2c1COC` [ZK 91296], the “properties in vivo compared with diazepam” value [3] is given as “properties similar to those of diazepam in vivo”.

For `COC(=O)c1cc2c(cn1)[nH]c1ccccc12` [β-CCM], the “effect on learning and memory” value (learning and memory; in vivo) is listed as “positive effect on learning and memory” and the convulsant activity (learning and memory; prevented testing in man) is listed as “highly convulsant activity”.

In the case of `CCOC(=O)c1ncc2[nH]c3ccc(OCc4ccccc4)cc3c2c1COC` [ZK 93423], the “properties in vivo compared with diazepam” value [3] is listed as “properties similar to those of diazepam in vivo”.

With `O=C1OC(CO)c2c1ncc1[nH]c3ccccc3c21` (stereo not drawn) [Compound No. 3, 10-Hydroxymethylbutanolide[2.3-]-β-Carboline] the “effect on GABA-generated current in oocyte” value (benzodiazepine receptor [4]; lactone (10^6 M [sic]) simultaneously with 10^5 M (so in the source) GABA) was “no increase or decrease was observed in the current”, the “inhibition of the increase in current generated by diazepam” value (benzodiazepine receptor [4]; lactone (10^6 M [sic]), diazepam (10^6 M [sic])) was “inhibits substantially the increase in the current” and the “receptor profile in oocyte test” value (benzodiazepine receptor [4]; with GABA) was “behaves, in this test, like an antagonist of the benzodiazepine receptor”. The “convulsant or sedative effect in mice” value (benzodiazepine receptor [5]; 5 mg/kg) was “neither convulsant nor sedative”, the “effect on behavior of mice” value (benzodiazepine receptor [5]; 5 mg/kg) was “produces no effect on their behavior” and the “antagonism of sedation caused by diazepam” value (benzodiazepine receptor [5]; compound 5 or 10 mg/kg, diazepam 7.5 mg/kg) was “completely avoided”. For the same compound, the “affinity relative to diazepam (20 nM)” value (benzodiazepine receptor [6]; times higher than diazepam) was 100 times and the “affinity relative to β-CCE (4 nM)” value (benzodiazepine receptor [6]; times higher than β-CCE) was 20 times.

In the case of `CCOC(=O)c1ncc2[nH]c3cccc(OC(C)C)c3c2c1C` [ZK 93426], the “learning and information retention” value [7] is given as “improve learning and information retention in man”.
